“And” between values parts separate entries of the source, which are not always exact repeats. Equal values may be shown once. “Also recorded” adds a separate entry of the source. Read-outs that look alike come from different tables or passages of the source.
Columns and labels:
Rock2 = Rock2 (Homo sapiens, UniProt O75116); test: Kinase panel, Rock2; type: biochemical
IFN-γ = test: Concanavalin A-induced IFN-γ in Lewis rats; type: in vivo; conditions: oral, 30 min prior to i.v. Con A
Description: The test compound is formulated in an inert vehicle (for example but not limited to 0.5% hydroxypropylmethyl cellulose (Sigma, cat #H3785)/0.02% Tween 80 (Sigma, cat #4780) in water) at the desired concentration to achieve doses in the range of 0.01-100 mg/kg. Six-week-old male Lewis rats (125 g-150 g) (Charles River Laboratories) are dosed with the compound orally, at time zero (0 min). After about 30 min the rats are injected intravenously (i.v.) with 10 mg/kg Concanavalin A (Con A, AmershamBioscience, cat #17-0450-01) dissolved in PBS (Invitrogen, cat #14190). About 4 h later, the rats are cardiac bled and their plasma is analyzed for levels of IL-2 (ELISA kit: R&D Systems cat #R2000) and IFN-γ (ELISA kit: R&D Systems cat #RIF00).
The rat concanavalin A (Con A) model was selected as the acute screening model because it provides an assessment of oral bioavailability, as well as a rapid measurement of effects on Jak1-dependent mechanisms. Intravenous injection of Con A into Lewis rats results in T cell receptor ligation and activation, leading to IL-2 release and IFN-γ induction by an autocrine mechanism. IL-2 release is Jak-independent, whereas IFN-γ induction is blocked by Jak1 inhibitors.
Plasma levels of IFN-γ and IL-2 are assessed 4 hours later in a terminal bleed.

[1] = test system: adjuvant-induced arthritis (paw swelling, bone erosion); test: Adjuvant-induced arthritis (AIA) in Lewis rats; type: in vivo
Description: The inflammation appears in the contra-lateral (left) hind paw seven days after the initial immunization. […] Rats are lightly anesthetized with an inhalant anesthetic (isoflurane) and the contra-lateral (left) hind paw is dipped into the plethysmograph and the paw volume is recorded. The rats are scored every other day up to day 17 after immunization. […] Bone volume and density is determined for a 360 μm (200 slice) vertical section encompassing the tarsal section of the paw. […] Drug exposure is determined in the plasma using LC/MS.

[2] = test system: peripheral NK cell counts; test: Peripheral NK cell counts in healthy rats; type: in vivo, rat
Excerpt: The correlation of this effect with ex vivo cytokine signaling inhibition is shown in the right panel of FIG. 6. These measurements correlated well, confirming the Jak dependency of the NK cell count endpoint.
To establish the relationship between changes in NK cell counts and nonclinical efficacy, the changes in NK cell counts were compared with decreases in rat AIA disease activity per unit exposure.

[3] = Pharmacokinetics in monkey; type: in vivo; conditions: for Vd: read-out: Vss
[4] = Definitive embryofetal development toxicity study in rabbits; type: in vivo, New Zealand White rabbits; conditions: rabbit
Excerpt: One additional group of 20 time-mated females served as the control and received the vehicle, 0.2% hydroxypropyl methylcellulose (HPMC, high viscosity) in deionized water.

[5] = Human PK, multiple ascending dose Study M13-845 Substudy 1; type: in vivo; conditions: for AUC: human, in vivo, oral
MATE1 = MATE1 (Homo sapiens, UniProt Q96FL8); test: Transporter inhibition, MATE1
OATP1B3 = OATP1B3 (Homo sapiens, UniProt Q9NPD5); test: Transporter inhibition, OATP1B3; conditions: up to 30 μM
CYP1A2 = CYP1A2 (Homo sapiens, UniProt P05177); test: CYP inhibition in human liver microsomes, CYP1A2
CYP2C8 = CYP2C8 (Homo sapiens, UniProt P10632); test: CYP inhibition in human liver microsomes, CYP2C8
[6] = target: CYP3A4 (midazolam/testosterone) (Homo sapiens, UniProt P08684); test: CYP inhibition in human liver microsomes, CYP3A4
IL-7-induced pSTAT5 = test: Ex vivo stimulation assay IL-7 pSTAT5, orally dosed healthy human subjects; conditions: oral
[7] = plasma, oral 1 mg/kg single dose, mean (SD)
[8] = plasma, oral 10 mg/kg single dose, mean (SD)
[9] = 12 mg BID, Day 14, mean (% CV), Western subjects, listed as Comp. 1
[10] = 24 mg BID, Day 14, mean (% CV), Western subjects, listed as Comp. 1

Chain of CYP1A2 (P05177 whole entry): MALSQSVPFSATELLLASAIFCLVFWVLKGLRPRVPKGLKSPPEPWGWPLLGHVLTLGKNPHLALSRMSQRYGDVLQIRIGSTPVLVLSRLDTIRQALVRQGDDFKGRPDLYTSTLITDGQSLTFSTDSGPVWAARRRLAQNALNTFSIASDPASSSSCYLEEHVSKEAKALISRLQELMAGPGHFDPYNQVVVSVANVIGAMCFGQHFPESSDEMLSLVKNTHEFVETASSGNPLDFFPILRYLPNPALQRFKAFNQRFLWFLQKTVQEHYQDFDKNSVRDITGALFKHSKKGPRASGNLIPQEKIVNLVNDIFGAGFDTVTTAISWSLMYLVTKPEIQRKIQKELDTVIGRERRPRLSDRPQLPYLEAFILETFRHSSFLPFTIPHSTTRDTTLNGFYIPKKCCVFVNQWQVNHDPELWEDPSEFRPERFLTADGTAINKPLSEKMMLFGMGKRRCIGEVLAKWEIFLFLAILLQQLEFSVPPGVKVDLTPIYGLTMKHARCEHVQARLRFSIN
Chain of CYP2C8 (P10632 whole entry): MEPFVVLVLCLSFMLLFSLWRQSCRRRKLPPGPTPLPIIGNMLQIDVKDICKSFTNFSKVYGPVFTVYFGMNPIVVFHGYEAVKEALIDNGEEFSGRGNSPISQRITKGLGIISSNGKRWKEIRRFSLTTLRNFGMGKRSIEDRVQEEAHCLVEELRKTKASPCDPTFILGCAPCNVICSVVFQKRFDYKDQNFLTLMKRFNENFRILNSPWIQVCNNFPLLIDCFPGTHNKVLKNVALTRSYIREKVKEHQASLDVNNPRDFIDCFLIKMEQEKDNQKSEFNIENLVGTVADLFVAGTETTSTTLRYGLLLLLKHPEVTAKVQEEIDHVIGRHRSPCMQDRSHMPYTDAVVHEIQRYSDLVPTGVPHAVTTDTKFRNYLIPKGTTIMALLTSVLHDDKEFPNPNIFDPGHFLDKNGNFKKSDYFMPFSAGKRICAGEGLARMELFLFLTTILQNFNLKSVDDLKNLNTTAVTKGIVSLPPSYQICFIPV
Chain of CYP3A4 (midazolam/testosterone) (P08684 whole entry): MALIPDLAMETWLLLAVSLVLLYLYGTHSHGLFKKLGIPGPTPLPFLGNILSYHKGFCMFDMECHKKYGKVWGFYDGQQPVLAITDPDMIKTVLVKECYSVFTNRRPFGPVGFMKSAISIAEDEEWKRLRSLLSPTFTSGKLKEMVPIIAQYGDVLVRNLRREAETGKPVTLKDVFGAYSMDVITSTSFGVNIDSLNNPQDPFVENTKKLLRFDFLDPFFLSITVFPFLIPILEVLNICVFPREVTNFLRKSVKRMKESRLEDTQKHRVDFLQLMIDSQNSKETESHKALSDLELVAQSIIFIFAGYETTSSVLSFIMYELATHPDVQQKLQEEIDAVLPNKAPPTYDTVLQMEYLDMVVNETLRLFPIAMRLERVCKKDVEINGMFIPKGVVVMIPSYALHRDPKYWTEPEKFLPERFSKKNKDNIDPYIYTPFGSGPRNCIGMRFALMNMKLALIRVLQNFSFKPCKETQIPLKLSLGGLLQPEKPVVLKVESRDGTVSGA
Chain of Rock2 (O75116 whole entry, species assumed): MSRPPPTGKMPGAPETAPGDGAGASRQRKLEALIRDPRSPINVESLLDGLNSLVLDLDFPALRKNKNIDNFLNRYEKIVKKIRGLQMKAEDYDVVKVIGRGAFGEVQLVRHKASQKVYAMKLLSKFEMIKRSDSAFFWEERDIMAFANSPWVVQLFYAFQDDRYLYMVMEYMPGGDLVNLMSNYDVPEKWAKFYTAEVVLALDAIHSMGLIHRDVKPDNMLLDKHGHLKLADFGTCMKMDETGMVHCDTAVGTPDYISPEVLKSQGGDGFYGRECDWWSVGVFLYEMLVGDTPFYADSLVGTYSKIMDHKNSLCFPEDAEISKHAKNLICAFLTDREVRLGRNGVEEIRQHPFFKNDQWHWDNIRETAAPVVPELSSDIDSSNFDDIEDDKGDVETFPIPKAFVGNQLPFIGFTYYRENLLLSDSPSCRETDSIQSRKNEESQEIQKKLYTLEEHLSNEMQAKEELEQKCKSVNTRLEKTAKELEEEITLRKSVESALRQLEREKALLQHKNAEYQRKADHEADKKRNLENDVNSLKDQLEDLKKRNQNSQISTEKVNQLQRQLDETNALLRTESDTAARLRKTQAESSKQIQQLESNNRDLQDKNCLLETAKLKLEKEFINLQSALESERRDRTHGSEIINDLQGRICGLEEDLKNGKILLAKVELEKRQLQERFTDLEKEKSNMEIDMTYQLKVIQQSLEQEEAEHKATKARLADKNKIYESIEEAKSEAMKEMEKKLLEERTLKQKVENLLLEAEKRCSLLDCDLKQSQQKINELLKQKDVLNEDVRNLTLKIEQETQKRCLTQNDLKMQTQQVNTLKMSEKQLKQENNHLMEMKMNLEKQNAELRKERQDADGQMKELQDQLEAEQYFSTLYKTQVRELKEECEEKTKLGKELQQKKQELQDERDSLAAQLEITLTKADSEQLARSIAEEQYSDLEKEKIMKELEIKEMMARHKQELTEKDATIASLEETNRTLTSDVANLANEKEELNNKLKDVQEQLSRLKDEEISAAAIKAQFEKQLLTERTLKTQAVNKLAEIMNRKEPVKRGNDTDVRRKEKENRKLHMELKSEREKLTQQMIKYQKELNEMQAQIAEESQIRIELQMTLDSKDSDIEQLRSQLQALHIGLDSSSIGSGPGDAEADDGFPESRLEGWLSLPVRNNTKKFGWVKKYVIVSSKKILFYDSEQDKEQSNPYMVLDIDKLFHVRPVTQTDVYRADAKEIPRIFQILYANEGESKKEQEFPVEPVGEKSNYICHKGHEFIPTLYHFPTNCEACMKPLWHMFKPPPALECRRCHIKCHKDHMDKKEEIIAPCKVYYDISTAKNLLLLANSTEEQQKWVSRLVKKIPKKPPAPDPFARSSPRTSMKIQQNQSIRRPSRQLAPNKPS
Chain of MATE1 (Q96FL8 whole entry): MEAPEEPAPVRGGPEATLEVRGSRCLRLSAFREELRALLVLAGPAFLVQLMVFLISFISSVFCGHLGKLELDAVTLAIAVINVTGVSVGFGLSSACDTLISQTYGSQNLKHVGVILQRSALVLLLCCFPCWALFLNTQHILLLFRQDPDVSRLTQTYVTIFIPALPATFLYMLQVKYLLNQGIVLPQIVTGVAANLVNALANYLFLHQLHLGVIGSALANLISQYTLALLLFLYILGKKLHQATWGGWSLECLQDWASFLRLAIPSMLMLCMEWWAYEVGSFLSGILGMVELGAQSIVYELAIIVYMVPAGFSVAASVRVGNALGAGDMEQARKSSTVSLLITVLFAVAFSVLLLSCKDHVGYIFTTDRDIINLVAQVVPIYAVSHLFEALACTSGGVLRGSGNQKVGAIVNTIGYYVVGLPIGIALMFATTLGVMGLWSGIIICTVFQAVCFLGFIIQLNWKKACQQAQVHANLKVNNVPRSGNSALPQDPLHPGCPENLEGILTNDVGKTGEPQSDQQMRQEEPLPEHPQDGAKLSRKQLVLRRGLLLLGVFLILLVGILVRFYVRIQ
Chain of OATP1B3 (Q9NPD5 whole entry): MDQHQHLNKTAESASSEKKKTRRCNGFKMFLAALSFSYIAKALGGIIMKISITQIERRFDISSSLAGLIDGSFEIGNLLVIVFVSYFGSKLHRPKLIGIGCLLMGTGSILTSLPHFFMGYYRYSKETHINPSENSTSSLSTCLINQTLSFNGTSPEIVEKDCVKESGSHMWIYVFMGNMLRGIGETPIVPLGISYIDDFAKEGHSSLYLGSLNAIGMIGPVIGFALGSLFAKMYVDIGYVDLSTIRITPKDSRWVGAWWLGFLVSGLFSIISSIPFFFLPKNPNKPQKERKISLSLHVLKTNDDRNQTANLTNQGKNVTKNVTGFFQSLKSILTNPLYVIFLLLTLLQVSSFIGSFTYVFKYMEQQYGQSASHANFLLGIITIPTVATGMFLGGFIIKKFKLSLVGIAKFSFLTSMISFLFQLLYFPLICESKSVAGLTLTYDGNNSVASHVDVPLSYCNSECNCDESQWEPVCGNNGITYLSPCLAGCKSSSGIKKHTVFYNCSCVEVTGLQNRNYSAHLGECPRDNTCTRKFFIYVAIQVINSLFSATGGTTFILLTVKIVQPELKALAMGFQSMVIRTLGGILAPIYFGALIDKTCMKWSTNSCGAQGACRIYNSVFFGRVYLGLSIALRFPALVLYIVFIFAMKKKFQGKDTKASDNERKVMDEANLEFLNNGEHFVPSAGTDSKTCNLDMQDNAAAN

With `CC[C@@H]1CN(C(=O)NCC(F)(F)F)C[C@@H]1c1cnc2cnc3[nH]ccc3n12` [Compound 1, (3S,4R)-3-ethyl-4-(3H-imidazo[1,2-a]pyrrolo[2,3-e]pyrazin-8-yl)-N-(2,2,2-trifluoroethyl)pyrrolidine-1-carboxamide] the IC50 (Rock2) was 0.43 µM, the ED50 (IFN-γ; Rattus norvegicus, read-out: ED50, inhibition of IFN-γ release) was 0.4 mg/kg and the “ED80, inhibition of IFN-γ release” value (IFN-γ) was 5.8 mg/kg. The “protection of bone erosion (tarsal bone volume, micro CT)” value ([1]; 3 mg/kg bid) was “complete protection”, the “efficacious exposure (AUC60), PK/PD modeling” value ([1]; AIA rats, about 60% inhibition of paw swelling) was 85 ng·h/mL and the “AUC60 (60% inhibition of paw swelling), total AUC0-12” value ([1]; oral bid, last day of study) was 85 ± 20 ng·h/mL and 85 ng·h/mL. The “AUC60, fraction unbound AUC0-12” value ([1]; oral bid, last day of study) was 34 ± 7 ng·h/mL, the “Paw Swelling (exposure)” value ([1]; rat AIA) was 62 ng·h/mL and the “inhibition of Paw Swelling reached at about the same level of reticulocyte inhibition” value ([1]; rat AIA vs reticulocyte deployment) was “about 80%”. For the same compound, the “effects on peripheral NK cell counts” value ([2]; over the efficacious exposure range, rat) was “less than that of Tofacitinib”, the “predicted maximum decrease of NK cell counts” value ([2]; over the intended clinical exposure range, on the basis of rat models) was “approximately 40%” and the “NK Counts (exposure)” value ([2]; rat) was 290 ng·h/mL. The “NK cell count decrease at about 60% efficacy (inhibition of paw swelling)” value ([2]; rat) was roughly 25%, the Vc ([3]; IV 0.1 mg/kg single dose) was 1.2 L/kg and the Vβ ([3]; IV 0.1 mg/kg single dose) was 2.2 L/kg. For the same compound, the Vc ([3]; IV 1.0 mg/kg single dose) was 1.0 L/kg, the Vβ ([3]; IV 1.0 mg/kg single dose) was 2.2 L/kg and the F ([3]; oral 1 mg/kg single dose, mean (SD), 1 mg/kg) was 59.3% and 59.3 (18.1) %. For the same compound, the F ([3]; oral 10 mg/kg single dose, mean (SD)) was 52.3 (12.4) %, the AUC(0-inf) ([3]; plasma, IV 0.1 mg/kg single dose, mean (SD)) was 72 ng·h/mL and the clearance ([3]; plasma, IV 0.1 mg/kg single dose, mean (SD), read-out: CLp (converted)) was 23.3 mL/min/kg. It also gave a Vd ([3]; plasma, IV 0.1 mg/kg single dose) of 1.9 L/kg, a half-life ([3]; plasma, IV 0.1 mg/kg single dose, read-out: t1/2 (converted)) of 1.1 h and an AUC(0-inf) ([3]; plasma, IV 1.0 mg/kg single dose, mean (SD)) of 947 ng·h/mL. The clearance ([3]; plasma, IV 1.0 mg/kg single dose, mean (SD), read-out: CLp (converted)) was 20 mL/min/kg, the Vd ([3]; plasma, IV 1.0 mg/kg single dose) was 1.6 L/kg and the half-life ([3]; plasma, IV 1.0 mg/kg single dose, read-out: t1/2 (converted)) was 1.3 h. It also gave a clearance ([3]; plasma, IV, read-out: clearance (converted)) of 21.7 mL/min/kg, a half-life ([3]; plasma, IV, read-out: plasma elimination t½ (converted)) of 1.2 h and an AUC(0-inf) [3, 7] of 562 ng·h/mL. For the same compound, the Cmax [3, 7] was 134 ng/mL, the AUC(0-inf) [3, 8] was 4950 ng·h/mL and the Cmax [3, 8] was 960 ng/mL. For the same compound, the Tmax [3, 8] was 4.3 h, the “maternal and fetal examinations” value ([4]; 2.5 and 10 mg/kg/day) was “no Compound 1-related effects” and the NOEL ([4]; oral, GD 7-19) was “NOEL = 10 mg/kg/day”. The AUC12/dose ([5]; 3 mg BID, Day 1) was 25.1 ng·h/mL/mg, the C12/dose ([5]; 3 mg BID, Day 1) was 0.32 ng/mL/mg and the Cmax/dose ([5]; 3 mg BID, Day 1) was 6.33 ng/mL/mg. For the same compound, the AUC12/dose ([5]; 3 mg BID, Day 14) was 26.1 ng·h/mL/mg, the Cmax/dose ([5]; 3 mg BID, Day 14) was 6.16 ng/mL/mg and the “Fe %, unchanged drug recovered in urine” value ([5]; 3 mg BID, Day 14) was 18.8%. It also gave an AUC12/dose ([5]; 6 mg BID, Day 1) of 22.3 ng·h/mL/mg, a C12/dose ([5]; 6 mg BID, Day 1) of 0.30 ng/mL/mg and a Cmax/dose ([5]; 6 mg BID, Day 1) of 4.91 ng/mL/mg. The AUC12/dose ([5]; 6 mg BID, Day 14) was 23.1 ng·h/mL/mg, the Cmax/dose ([5]; 6 mg BID, Day 14) was 4.80 ng/mL/mg and the “Fe %, unchanged drug recovered in urine” value ([5]; 6 mg BID, Day 14) was 18.7%. For the same compound, the AUC12/dose ([5]; 12 mg BID, Day 1) was 22.5 ng·h/mL/mg, the C12/dose ([5]; 12 mg BID, Day 1) was 0.33 ng/mL/mg and the Cmax/dose ([5]; 12 mg BID, Day 1) was 4.84 ng/mL/mg. For the same compound, the “Fe %, unchanged drug recovered in urine” value ([5]; 12 mg BID, Day 14) was 21.4%, the AUC12/dose [5, 9] was 22.6 ng·h/mL/mg and the Cmax/dose [5, 9] was 4.80 ng/mL/mg. The AUC12/dose ([5]; 24 mg BID, Day 1) was 22.5 ng·h/mL/mg, the C12/dose ([5]; 24 mg BID, Day 1) was 0.32 ng/mL/mg and the Cmax/dose ([5]; 24 mg BID, Day 1) was 5.25 ng/mL/mg. The “Fe %, unchanged drug recovered in urine” value ([5]; 24 mg BID, Day 14) was 18.7%, the AUC12/dose [5, 10] was 22.0 ng·h/mL/mg and the Cmax/dose [5, 10] was 4.95 ng/mL/mg. For the same compound, the AUC ([5]; 3 mg, 3 mg BID, Day 1, mean, read-out: AUC12) was 75.3 ng·h/mL, the AUC ([5]; 3 mg, 3 mg BID, Day 14, mean, read-out: AUC12) was 78.3 ng·h/mL and the AUC ([5]; 6 mg, 6 mg BID, Day 14, mean, read-out: AUC12) was 138 ng·h/mL. For the same compound, the AUC ([5]; 6 mg, AUC12, 6 mg BID, Day 1, mean, heading: AUC12) was 134 ng·h/mL, the AUC ([5]; 12 mg, 12 mg BID, Day 1, mean, read-out: AUC12) was 270 ng·h/mL and the AUC ([5]; 12 mg, 12 mg BID, Day 14, mean, read-out: AUC12) was 271 ng·h/mL. It also gave an AUC ([5]; 24 mg, 24 mg BID, Day 1, mean, read-out: AUC12) of 540 ng·h/mL, an AUC ([5]; 24 mg, 24 mg BID, Day 14, mean, read-out: AUC12) of 529 ng·h/mL and an IC50 (MATE1) of 11 µM. The “inhibition of OATP1B3 uptake” value (OATP1B3) was “No significant inhibition”, the “time-dependent inhibition of CYP1A2” value (CYP1A2; human liver microsomes) was “No obvious time-dependent inhibition” and the “inhibition of CYP1A2” value (CYP1A2; up to 30 μM) was “did not inhibit; also recorded: not an inhibitor”. The “time-dependent inhibition of CYP2C8” value (CYP2C8; human liver microsomes) was “No obvious time-dependent inhibition”, the “inhibition of CYP2C8” value (CYP2C8; up to 30 μM) was “did not inhibit; also recorded: not an inhibitor” and the “time-dependent inhibition of CYP3A4” value ([6]; human liver microsomes) was “No obvious time-dependent inhibition”. For the same compound, the “inhibition of CYP3A4 (midazolam/testosterone)” value ([6]; up to 30 μM) was “did not inhibit; also recorded: not an inhibitor” and the “dose causing the same inhibition of IL-7-induced pSTAT5 as 5 mg tofacitinib” value (IL-7-induced pSTAT5) was 12 mg.

From US20150118229A1, “JAK1 SELECTIVE INHIBITOR AND USES THEREOF” (ABBVIE INC., priority 2013, published 2015)
